From PubChem BioAssay AID1508612 come the findings set out here.

Structures are written as SMILES.

This data set can be described thus: passive permeability, PAMPA, ADME assay (AID 1508612). As to conditions: pH 7.4, 30.0 min, 50.0 µM. (The PAMPA barrier holds no transporters, so it reflects passive diffusion.)

Broadly, the Papp is a coefficient for how fast a substance crosses the barrier. A low value points to poor permeation. `CC1=C(C(=O)Nc2nncs2)C(c2nn(C)cc2Cl)N=C(Nc2nc3ccccc3o2)N1` (configuration not stated) had a Papp of more than 1000 ×10⁻⁶ cm/s.

Compound `COc1cc(C2CC(=O)Nc3cc4c(cc32)OCCO4)cc(Br)c1OC` (configuration not stated) gave a Papp of 376 ×10⁻⁶ cm/s. `O=[S+]([O-])(Nc1ccc(N2CCNCC2)cc1)c1ccc(NCc2ccc(Cl)cc2O)cc1` registered a Papp of 6.78 ×10⁻⁶ cm/s. In turn, `CC(=O)c1c(C)[nH]c(C(=O)Nc2cccc([S+](=O)([O-])Nc3ccccc3C)c2)c1C` came in with a Papp of 628 ×10⁻⁶ cm/s. `COC(C)(C)CCn1nc(Nc2c(C)cccc2C)c2cnc(Nc3ccc(OCCN4CCCC4)c(F)c3)nc21` showed a Papp of more than 1000 ×10⁻⁶ cm/s. The result for `Fc1cc(Nc2nc(-c3ccncc3)nc3ccccc23)ccc1-c1ccnc(C(F)(F)F)c1` reads 11.6 ×10⁻⁶ cm/s; that for `O=C(Nc1nc(-c2ccccc2)cs1)c1ccncc1NS(=O)(=O)c1ccc(F)c(F)c1`, more than 1000 ×10⁻⁶ cm/s.

Compound `COc1ccc(-c2nc3sc(CCNC(=O)C(C)(C)C)c(C)n3n2)cc1` had an apparent permeability (Papp) of 214 ×10⁻⁶ cm/s. The figure for `COc1cccc(CNCCSc2nnnn2C)c1OCc1ccc(Cl)cc1Cl` is more than 1000 ×10⁻⁶ cm/s; for `CC(C)(C)c1ccc(-n2cnc3cc(C(=O)N4CCCCC4)ccc32)cc1` it is 969 ×10⁻⁶ cm/s. The compound `NC(=O)C1CCN(c2nc(-c3ccccc3[N+](=O)[O-])cs2)CC1` had a Papp of 109 ×10⁻⁶ cm/s. The result for `COC(=O)Nc1nc2ccc(Sc3ccccc3)cc2[nH]1` reads 197 ×10⁻⁶ cm/s; that for `CC(=O)c1c(C)[nH]c(C(=O)Nc2ccc(Cl)cc2)c1C`, 364 ×10⁻⁶ cm/s; that for `CC(=O)c1c(C)c(C(=O)Nc2cccc([S+](=O)([O-])N(C)C)c2)n(C)c1C`, 295 ×10⁻⁶ cm/s. For the compound `CCN(CC)S(=O)(=O)c1cccc(C(=O)Nc2ccc(C#N)cc2)c1`, the Papp was more than 1000 ×10⁻⁶ cm/s. On to `Cc1ccc(C(=O)N2CCc3sc(C(=O)NC(C)c4ccccc4)cc3C2)cc1` (configuration not stated), for which the Papp is 799 ×10⁻⁶ cm/s. Turning to `O=C(Nc1ccccc1-c1cn2c(CN3CCNCC3)csc2n1)c1cnc2ccccc2n1`, the Papp is 239 ×10⁻⁶ cm/s. For the compound `CNc1cc(-c2nc(Nc3ccc(F)c(F)c3)c3ccccc3n2)ccn1`, the Papp was determined as 257 ×10⁻⁶ cm/s. The Papp values of the last two compounds are within 1.5-fold of each other. In turn, `Cc1cnc(-c2ccccc2C2COC2)nc1NCC1CCN(c2cccnc2)CC1` displayed a Papp of 3.48 ×10⁻⁶ cm/s. Compared with the last compound, the Papp is about 74-fold lower. In turn, `COc1cccc(CNc2ccc(S(=O)(=O)Nc3ccccc3)cc2)c1O` had a Papp of more than 1000 ×10⁻⁶ cm/s. In the case of `CC#CC(=O)N1CCC[C@H]1c1nc(-c2ccc(C(=O)Nc3ccccn3)cc2)c2c(N)nccn12`, the Papp came out at 39.9 ×10⁻⁶ cm/s. Turning to `Cc1cccc(N2CCN(C(=O)c3ccc4c(c3)C(O)CCCCCN4C)CC2)c1` (configuration not stated), the Papp is less than 1 ×10⁻⁶ cm/s. Take `Nc1nc2c(s1)C(c1ccc(Br)cc1)CC(=O)N2` (configuration not stated): the Papp turned out to be 297 ×10⁻⁶ cm/s. The compound `CC(C)n1cc(-c2ccc3c(c2)N(C)CC3)c2c(NS(=O)(=O)c3ccn(C)n3)ccnc21` yielded a Papp of more than 1000 ×10⁻⁶ cm/s. The result for `CC(C)CNc1ncnc2onc(-c3ccc(Cl)cc3)c12` reads more than 1000 ×10⁻⁶ cm/s; that for `COc1cc(=O)n2c(c1C(=O)N(C)Cc1cscn1)CCN(C(=O)c1ccc(C)cc1C)CC2`, 9.91 ×10⁻⁶ cm/s; that for `COc1cccc(CNC(=O)CCCn2nc(C)c3c(C)n(-c4ccc(C)cc4)nc3c2=O)c1OC`, 619 ×10⁻⁶ cm/s.

`CCOC(=O)c1nn(-c2ccc(OC)cc2)c(=O)c2c(N)scc12`: the Papp is 187 ×10⁻⁶ cm/s. Against the preceding compound, the Papp is about 3.3-fold lower. Compound `COc1cccc(C(=O)Nc2nc(-c3nnn(-c4cc(C)ccc4C)c3C)ns2)c1` showed a Papp of 340 ×10⁻⁶ cm/s. This Papp lies about 1.8-fold higher than the previous one.

In the case of `COc1ccc(NC(=O)c2c(C)cccc2C)cc1[S+](=O)([O-])N1CCCCCC1`, the Papp was 738 ×10⁻⁶ cm/s. With `O=C(Nc1ccccc1)C1CC(=O)N(c2n[nH]c3cc(Br)ccc23)C1` (configuration not stated), the Papp worked out at 1.1 ×10⁻⁶ cm/s. The compound `COc1ccccc1NS(=O)(=O)c1cccc(NC(=O)c2[nH]c(C)c(C(C)=O)c2C)c1` registered a Papp of 197 ×10⁻⁶ cm/s. Compound `Fc1cc(Nc2nc(-c3ccncc3)nc3ccccc23)ccc1-c1cc(F)c(F)c(F)c1` returned a Papp of 21.1 ×10⁻⁶ cm/s. `O=C(CCc1ccccc1)NC(c1cccs1)c1cc(Cl)c2cccnc2c1O` (configuration not stated) yielded a Papp of 20.9 ×10⁻⁶ cm/s. `CS(=O)(=O)c1ccc(-c2csc(N3CCC(C(N)=O)CC3)n2)cc1` showed an apparent permeability coefficient (Papp) of 74 ×10⁻⁶ cm/s. This Papp lies about 3.5-fold higher than the previous one. For `C[C@H]1CCC[C@H](O)CCC/C=C/c2cc(O)cc(O)c2C(=O)O1`, the Papp came to 864 ×10⁻⁶ cm/s. Compared with the last compound, the Papp is about 12-fold higher.

In the case of `CN(C)c1ccccc1-c1csc(N2CCC(C(N)=O)CC2)n1`, the Papp is 331 ×10⁻⁶ cm/s. This Papp is about 2.6-fold lower than that of the compound before. The compound `C[C@H]1CN(C(=O)c2nn(C)c3ccccc23)C[C@@H]1c1nc(-c2ccncc2)no1` yielded a Papp of 907 ×10⁻⁶ cm/s. As for `CC(=O)NC1CCN(c2nc(-c3ccc(Br)cc3)cs2)CC1`, the Papp stood at 789 ×10⁻⁶ cm/s. Regarding `Fc1ccc(N2CCCN(CC3[C@H]4CNC[C@@H]34)CC2)cc1` (some centres not stated), the Papp came to 196 ×10⁻⁶ cm/s. This Papp lies about 4-fold lower than the previous one.

As to `CCOC(=O)N1CCN(Cc2nc3c(c(=O)n(C)c(=O)n3C)n2Cc2ccc(F)cc2)CC1`, the Papp worked out at 550 ×10⁻⁶ cm/s.

`CC(C)C[C@H]1C(=O)N2CCC[C@H]2[C@]2(O)O[C@](NC(=O)[C@@H]3C=C4c5cccc6[nH]c(Br)c(c56)C[C@H]4N(C)C3)(C(C)C)C(=O)N12`: the Papp was found to be 876 ×10⁻⁶ cm/s. This Papp lies about 1.6-fold higher than the previous one. For `CCCN(C(=O)c1sc2nc3n(c(=O)c2c1C)CCCC3)c1ccccc1C`, the Papp was more than 1000 ×10⁻⁶ cm/s. Take `CCOc1ccc(CCNC(=O)c2cc3sccc3n2C(C)C)cc1OCC`: the Papp amounted to 897 ×10⁻⁶ cm/s. With `COc1ccccc1S(=O)(=O)Nc1cnccc1C(=O)Nc1nc(-c2ccccc2)cs1`, the Papp is 387 ×10⁻⁶ cm/s.

For the compound `Cc1ccc(S(=O)(=O)NC2CCCCC2)cc1`, the Papp came out at 206 ×10⁻⁶ cm/s. Consider `CCCS(=O)(=O)c1nc(NC2CC2)cc(-c2ccc3c(ccn3C3CC(C)(C)NC(C)(C)C3)c2)n1`, for which the Papp amounted to 107 ×10⁻⁶ cm/s.
